What was measured:
[1] = system: elastase-induced emphysema in rats; experiment: Repair of alveoli in elastase-induced emphysema (rat model); type: in vivo, male Sprague Dawley rats; details: starting 21 days post elastase injury, morphometric analysis of lung sections
Experimental: Effects of RAR Selective Retinoids on Repair of Alveoli in Elastase-induced Emphysema
RAR selective agonists were evaluated for its effects on alveolar repair in the rat model of elastase-induced emphysema in rats (D. Massaro et al. Nature Medicine (1997, 3, 675). Animals were divided into treatment groups of approximately eight. Lung inflammation and alveolar damage was induced in male Sprague Dawley rats by a single installation of pancreatic elastase(porcine derived, Calbiochem) 2 U/gram body mass. Three weeks post injury all-trans retinoic acid or RAR agonist was dissolved in dimethylsulfoxide (20 mg/ml) and stored at −20 C. Fresh working stocks were prepared fresh daily by dilution in PBS to a final concentration of 2 mg/ml. Animals were dosed once daily with the retinoid by intraperitoneal injection or orally, starting 21 days post injury. Control groups were challenged with elastase and 21 days later treated with Vehicle (DMSO/PBS) for 14 days. Animals were sacrificed 24 hours after the last dose of by exsanguination under deep anesthesia.
The lungs were inflated with 10% neutral buffered formalin by intratracheal instillation at a constant rate (1 ml/gram body mass/min). The lung was excised and immersed in fixative for 24 hours prior to processing. Standard methods were used to prepare 5 um paraffin sections. Sections were stained with Hematoxylin and Eosin (H%E). Computerized Morphometric analysis was performed to determine the average alveolar size and alveolar number (Table 1).

Row | Structure (SMILES) | melting point | further results
1 | CC1(C)CCC(C)(C)C2=C1CC(C)(C(=O)Oc1ccc(C(=O)O)cc1)C2 [B, 2,4,4,7,7-pentamethyl-2,3,4,5,6,7-hexahydro-1H-indene-2-carboxylic acid 4-carboxy-phenyl ester] | 205 to 206 °C | –
2 | CCC1(C(=O)Oc2ccc(C(=O)O)cc2)CC2=C(C1)C(C)(C)CCC2(C)C [C, 2-ethyl-4,4,7,7-tetramethyl-2,3,4,5,6,7-hexahydro-1H-indene-2-carboxylic acid 4-carboxy-phenyl ester] | 175 to 176 °C | –
3 | CC1(C)CCC(C)(C)C2=C1CC(Cc1ccccc1)(C(=O)Oc1ccc(C(=O)O)cc1)C2 [E, 2-benzyl-4,4,7,7-tetramethyl-2,3,4,5,6,7-hexahydro-1H-indene-2-carboxylic acid 4-carboxy-phenyl ester] | 183 to 184 °C | –
4 | CCCCCC1(C(=O)Oc2ccc(C(=O)O)cc2)CC2=C(C1)C(C)(C)CCC2(C)C [compound D, 4,4,7,7-tetramethyl-2-pentyl-2,3,4,5,6,7-hexahydro-1H-indene-2-carboxylic acid 4-carboxy-phenyl ester] | 156 to 158 °C | % repair area ([1]; 0.3 mg/kg p.o. once daily): 11.1%; % repair area ([1]; 0.5 mg/kg i.p. once daily): 54%; % repair area ([1]; 1 mg/kg p.o. once daily): 44%; % repair area ([1]; 3 mg/kg p.o. once daily): 48.6%

The next lines start with results.

Row | melting point | Structure (SMILES) | further results
5 | 156 to 157 °C | CCCC1(C(=O)Oc2ccc(C(=O)O)cc2)CC2=C(C1)C(C)(C)CCC2(C)C [Example 3.5, 4,4,7,7-Tetramethyl-2-propyl-2,3,4,5,6,7-hexahydro-1H-indene-2-carboxylic acid 4-carboxy-phenyl ester] | –
6 | 172 to 173 °C | CCCCC1(C(=O)Oc2ccc(C(=O)O)cc2)CC2=C(C1)C(C)(C)CCC2(C)C [Example 3.6, 2-Butyl-4,4,7,7-tetramethyl-2,3,4,5,6,7-hexahydro-1H-indene-2-carboxylic acid 4-carboxy-phenyl ester] | –
7 | 194 to 196 °C | CC(C)CC1(C(=O)Oc2ccc(C(=O)O)cc2)CC2=C(C1)C(C)(C)CCC2(C)C [Example 3.7, 2-Isobutyl-4,4,7,7-tetramethyl-2,3,4,5,6,7-hexahydro-1H-indene-2-carboxylic acid 4-carboxy-phenyl ester] | –
8 | 149 to 150 °C | CCCCCCC1(C(=O)Oc2ccc(C(=O)O)cc2)CC2=C(C1)C(C)(C)CCC2(C)C [Example 3.8, 2-Hexyl-4,4,7,7-tetramethyl-2,3,4,5,6,7-hexahydro-1H-indene-2-carboxylic acid 4-carboxy-phenyl ester] | –
9 | 182 to 183 °C | CC1(C)CCC(C)(C)C2=C1CC(CCc1ccccc1)(C(=O)Oc1ccc(C(=O)O)cc1)C2 [Example 3.9, 4,4,7,7-Tetramethyl-2-phenethyl-2,3,4,5,6,7-hexahydro-1H-indene-2-carboxylic acid 4-carboxy-phenyl ester] | –
